Experimental findings from the NIST ThermoML archive (doi:10.1016/j.fluid.2017.07.002) are described below.

“And” between values parts separate entries of the source, which are not always exact repeats. Equal entries are not always repeated. ± gives the expanded uncertainty stated by the source.

The conditions of the series: Liquid, Closed cell (Static) method.

In the case of `FC(F)(F)C(F)(F)C(F)(F)F` [octafluoropropane], the “vapor or sublimation pressure” value (223.21 K) is recorded as 53.1 ± 1.9 kPa and the “vapor or sublimation pressure” value (272.76 K) stood at 408.18 ± 2 kPa.
As to `C=C(F)C(F)(F)F` [2,3,3,3-tetrafluoro-1-propene], the “vapor or sublimation pressure” value by setting is: (193.26 K) 5.46 ± 0.38 kPa; (193.3 K) 5.69 ± 0.38 kPa; (223 K) 37.74 ± 0.42 kPa; (223.08 K) 37.41 ± 1.1 kPa; (223.11 K) 37.48 ± 1.1 kPa; (233.02 K) 61.64 ± 0.61 kPa. Also, the “vapor or sublimation pressure” value runs as follows: (233.04 K) 62.24 ± 1.3 kPa; (272.69 K) 310.8 ± 1.5 kPa; (272.75 K) 310.85 ± 1.5 kPa and 310.76 ± 1.5 kPa; (272.78 K) 311.18 ± 1.5 kPa; (272.8 K) 311.8 ± 1.5 kPa; (272.81 K) 311.46 ± 1.5 kPa.
As to `FC(F)F` [trifluoromethane], the “vapor or sublimation pressure” value reads like this: (173.86 K) 34.35 ± 0.58 kPa; (177.11 K) 41.46 ± 0.77 kPa; (183.19 K) 62.33 ± 0.9 kPa; (183.2 K) 62.29 ± 0.92 kPa; (193.19 K) 113.55 ± 3.3 kPa; (228.83 K) 600.35 ± 3.2 kPa. The “vapor or sublimation pressure” value reads like this: (233.16 K) 707.03 ± 6.9 kPa; (273.25 K) 2502.8 ± 13 kPa.
`CC` [ethane]: the “vapor or sublimation pressure” value came to 53.57 ± 0.85 kPa (173.63 K), 66.42 ± 1.1 kPa (177.24 K), 94.31 ± 1.1 kPa (183.28 K) and 673.93 ± 3.5 kPa (228.82 K).
As for `FC(F)(F)F` [tetrafluoromethane], the “vapor or sublimation pressure” value runs as follows: (153.23 K) 171.92 ± 5.7 kPa; (193.43 K) 1205.3 ± 6.8 kPa.
